Experimental findings from patent publication US8252831B2, “Imidazole-2-benzamide compounds useful for the treatment of osteoarthritis” (Eli Lilly and Company, priority 2010, dated 2012) are described below.

For orientation: IC50 means the concentration that gives 50% inhibition.

The subject of test [1] is Human epithelial lung carcinoma cell line A549. In words: Cell Based Assay for Measuring Eicosanoid Selectivity (rhIL-1β induced PGE2 in A549 cells). The conditions noted are these: rhIL-1β 0.1-0.2 ng/mL, approximately 18 hours, PGE2 by EIA, read-out: PGE2 Inhibition. IC50 (μM, mean ± std. dev.). The method, then: Human epithelial lung carcinoma cell line A549 is obtained from ATCC (CCL-185) and is maintained in Kaighn's F12 (“F12K”)+10% fetal bovine serum, (FBS) (plating medium), and 5% CO2. The cells are passaged at 1:3 twice per week.
For assay, cells are released from flasks by washing once with phosphate buffered saline (PBS), then once with Trypsin/EDTA. After 3-5 minutes at 37° C., the cells are suspended in 10 mL of plating medium and centrifuged at 2000 rpm, 25° C., for 5 minutes. The supernatant is aspirated and the cell pellet is resuspended in 10 mL F12K. Cell number is determined by counting an aliquot of cells which has been diluted in PBS and Trypan blue on a hemocytometer. Cells are plated at 40,000/well in 96 well Falcon plates 24 hours prior to treatment. Compounds are diluted in DMSO to 100× of the final concentration in Screen Mates tubes. The medium is removed from the cells and fresh medium (90 μL/well) is added to the cells. […] The plates are incubated at room temperature for 30-45 minutes and then read on a plate reader at A490 to determine viability. […]
The conditioned medium is assayed for levels of PGE2 and PGI2 by specific enzyme immune-assays (EIAs), according to the manufacturer's protocols (Cayman). […] After approximately 45 minutes at room temperature on an orbital shaker at 100 rpm, the plates are read at A412 on a plate reader. […]

Test [2] concerns Human whole blood. In words: Human Whole Blood Assay (LPS induced PGE2 production). It counts as cell-based. The conditions noted are these: LPS 100 μg/mL, 20-24 hours, PGE2 by LC/MS/MS, read-out: PGE2 Inhibition. IC50 (μM, mean ± std. dev.). The procedure: Blood is collected from normal volunteer donors into sodium heparin vacutainer tubes. Donors are selected, in part, on their confirmation that they have not taken NSAIDs, aspirin, Celebrex, or glucocorticoids within two weeks of the donation. All tubes/donor are pooled into 250 mL Corning conical centrifuge tubes and 436.5 μL/well is distributed into deep well polypropylene plates. Compounds are diluted in DMSO to 100× final and 4.5 μL/well in duplicate or triplicate is added to give 7 point curves. […] One hundred microliters is quantitatively transferred to Costar cluster tubes blocks and 400 μL/well of the methanol stop reagent and internal standards, d-4PGE2, d-4PGF2α, and d-4TX2β are added. […]
Solid phase extraction is performed using Waters HLB 30 mg/bed 96 well plates on a vacuum manifold: 1) the matrix is washed with methanol (1 mL), followed by 0.1% formic acid in water (1 mL); 2) 400 μL sample is applied along with 0.1% formic acid in water (900 μL) and allowed to bind for 5 minutes; 3) the matrix is washed with 0.1% formic acid in water (600 μL), followed by 80/20 water/methanol (600 μL); 4) the products are eluted with 2-500 μL volumes of ethyl acetate; 5) the samples are dried under nitrogen and reconstituted in 75/25 water/acetonitrile with 0.1% formic acid (50 μL). The products were analyzed by LC/MS/MS. […]

As for `CC(C)(C)C(=O)NCc1ccc(Br)c(C(=O)Nc2ncc[nH]2)c1` [Example 5, 2-Bromo-5-[(2,2-dimethylpropanoylamino)methyl]-N-(1H-imidazol-2-yl)benzamide], the results for the IC50 in test [1] and in test [2] were 0.19 µM and 0.607 ± 0.502 µM, respectively.
